In article PMC11823630, “In vitro potentiation of tetracyclines in Pseudomonas aeruginosa by RW01, a new cyclic peptide” (Antimicrobial Agents and Chemotherapy, 2024):
Values after ≈ are worked out from the molar mass of the structure shown.

Key:
[1] = tested on: P. aeruginosa 125A; assay: MIC, CLSI broth microdilution in BD Phoenix AST Broth; assay type: cell-based, Pseudomonas aeruginosa; settings: Pseudomonas aeruginosa; strain 125A; agent alone; 37°C, 18–22 h; three biological replicates
Description: (§1) MIC for RW01 was also tested.
(§2) FIC of RW01 (FICRW01)=MIC of RW01 in combination/MIC of RW01 alone,FIC of antibiotic (FICATB)=MIC of ATB in combination/MIC of ATB alone,FICI=FICRW01 +FICATB.
(§3) FICI was interpreted as follows: synergistic effect if FICI is ≤0.5; additive effect if 0.5 < FICI ≤ 1.0; indifferent effect if 1.0 < FICI ≤ 2.0; and finally, antagonistic effect if FICI is >2.0. The average FICI considering the antibiotic MIC (no growth in any of the replicates) at different concentrations of RW01 was calculated ([28]).

[2] = tested on: P. aeruginosa 125B; assay: as above; assay type: cell-based, Pseudomonas aeruginosa; settings: Pseudomonas aeruginosa; strain 125B; agent alone; 37°C, 18–22 h; three biological replicates
Description: as §1, §2, §3

[3] = tested on: P. aeruginosa 41A; assay: as above; assay type: cell-based, Pseudomonas aeruginosa; settings: Pseudomonas aeruginosa; strain 41A; agent alone; 37°C, 18–22 h; three biological replicates
Description: as §1, §2, §3

[4] = tested on: P. aeruginosa 41B; assay: as above; assay type: cell-based, Pseudomonas aeruginosa; settings: Pseudomonas aeruginosa; strain 41B; agent alone; 37°C, 18–22 h; three biological replicates
Description: as §1, §2, §3

[5] = tested on: P. aeruginosa PAO1; assay: as above; assay type: cell-based, Pseudomonas aeruginosa; settings: Pseudomonas aeruginosa, PAO1, strain PAO1; agent alone; 37°C, 18–22 h; three biological replicates; read-out: MIC
Description: as §1, §2, §3

[6] = tested on: P. aeruginosa PAOUW; assay: as above; assay type: cell-based, Pseudomonas aeruginosa; settings: Pseudomonas aeruginosa, strain PAOUW; agent alone; 37°C, 18–22 h; three biological replicates; read-out: MIC
Description: as §1, §2, §3

[7] = tested on: P. aeruginosa PAOUW∆oprF; assay: as above; assay type: cell-based, Pseudomonas aeruginosa; settings: Pseudomonas aeruginosa, strain PAOUWΔoprF; agent alone; 37°C, 18–22 h; three biological replicates
Description: as §1, §2, §3

[8] = tested on: P. aeruginosa PAOΔmexR; assay: as above; assay type: cell-based, Pseudomonas aeruginosa; settings: Pseudomonas aeruginosa
Description: as §1, §2, §3

[9] = tested on: P. aeruginosa PAOΔmexZ; assay: as above; assay type: cell-based, Pseudomonas aeruginosa; settings: Pseudomonas aeruginosa, strain PAOΔmexZ; agent alone; 37°C, 18–22 h; three biological replicates
Description: as §1, §2, §3

[10] = tested on: P. aeruginosa PAOΔoprM; assay: as above; assay type: cell-based, Pseudomonas aeruginosa; settings: Pseudomonas aeruginosa
Description: as §1, §2, §3

[11] = tested on: P. aeruginosa PAO1, WT; assay: MIC, Sensititre custom plate; assay type: cell-based; settings: Pseudomonas aeruginosa, PAO1, read-out: MIC, Sensititre
Description: (§4) Selection of resistant mutants was performed for minocycline with and without RW01 in three independent replicates for wild-type P. aeruginosa reference strain PAO1. Tubes containing Mueller-Hinton broth (MHB) were inoculated and incubated for 24 h at 37°C. Afterward, 1/100 dilution of each tube was incubated at 37°C in MHB to late-exponential growth phase, measured by spectrophotometry at OD600. […] A control plate without antibiotic was included as inoculum control. After overnight incubation, colony counting of each treatment was performed to analyze the generation of resistant population. The mutant prevention concentration (MPC) was defined as the lowest concentration of antibiotic yielding no growth of resistant mutants. Selected mutants were checked for susceptibility profiles by using a Sensititre custom plate (Thermo Fisher Scientific, Massachusetts, USA) for Gram-negative bacteria, following the manufacturer’s instructions.

[12] = tested on: PAO1 mutant MIN16_1, nalD(T43P); assay: MIC, Sensititre custom plate; assay type: cell-based; settings: Pseudomonas aeruginosa, PAO1, read-out: MIC, Sensititre
Description: as §4

[13] = tested on: PAO1 mutant MIN16_2, nalC(aa9∆4), pilQ(nt46∆1); assay: MIC, Sensititre custom plate; assay type: cell-based; settings: Pseudomonas aeruginosa, PAO1, read-out: MIC, Sensititre
Description: as §4

[14] = tested on: PAO1 mutant MIN16_3, nfxB(nt79∆14), pilB(N349K); assay: MIC, Sensititre custom plate; assay type: cell-based; settings: Pseudomonas aeruginosa, PAO1, read-out: MIC, Sensititre
Description: as §4

[15] = tested on: PAO1 mutant MIN16_4, nalC(T50P), pilM(Q62X); assay: MIC, Sensititre custom plate; assay type: cell-based; settings: Pseudomonas aeruginosa, PAO1, read-out: MIC, Sensititre
Description: as §4

[16] = tested on: PAO1 mutant MIN1_RW01_1, pmrB(Y98N); assay: MIC, Sensititre custom plate; assay type: cell-based; settings: Pseudomonas aeruginosa, PAO1, read-out: MIC, Sensititre
Description: as §4

[17] = tested on: PAO1 mutant MIN1_RW01_2, mexR(G58E), pilB(G326D), hutC(Y181X); assay: MIC, Sensititre custom plate; assay type: cell-based; settings: Pseudomonas aeruginosa, PAO1, read-out: MIC, Sensititre
Description: as §4

[18] = tested on: PAO1 mutant MIN1_RW01_3, pmrB(V215L); assay: MIC, Sensititre custom plate; assay type: cell-based; settings: Pseudomonas aeruginosa, PAO1, read-out: MIC, Sensititre
Description: as §4

[19] = tested on: PAO1 mutant MIN2_RW01_1, pmrB(V215L); assay: MIC, Sensititre custom plate; assay type: cell-based; settings: Pseudomonas aeruginosa, PAO1, read-out: MIC, Sensititre
Description: as §4

[20] = tested on: PAO1 mutant MIN2_RW01_2, pmrB(M292T); assay: MIC, Sensititre custom plate; assay type: cell-based; settings: Pseudomonas aeruginosa, PAO1, read-out: MIC, Sensititre
Description: as §4

[21] = tested on: PAO1 mutant MIN2_RW01_3, parS(V152A); assay: MIC, Sensititre custom plate; assay type: cell-based; settings: Pseudomonas aeruginosa, PAO1, read-out: MIC, Sensititre
Description: as §4

[22] = tested on: PAO1 mutant MIN2_RW01_4, pmrB(M292T); assay: MIC, Sensititre custom plate; assay type: cell-based; settings: Pseudomonas aeruginosa, PAO1, read-out: MIC, Sensititre
Description: as §4

[23] = tested on: PAO1 mutant MIN32_1, mexR(R63H), pilB(N349K), PA0646(V316G); assay: MIC, Sensititre custom plate; assay type: cell-based; settings: Pseudomonas aeruginosa, PAO1, read-out: MIC, Sensititre
Description: as §4

[24] = tested on: PAO1 mutant MIN4_RW01_1, pmrB(R429H); assay: MIC, Sensititre custom plate; assay type: cell-based; settings: Pseudomonas aeruginosa, PAO1, read-out: MIC, Sensititre
Description: as §4

[25] = tested on: PAO1 mutant MIN4_RW01_3, pmrB(M292T); assay: MIC, Sensititre custom plate; assay type: cell-based; settings: Pseudomonas aeruginosa, PAO1, read-out: MIC, Sensititre
Description: as §4

[26] = tested on: PAO1 mutant MIN4_RW01_4, pmrB(Y98N); assay: MIC, Sensititre custom plate; assay type: cell-based; settings: Pseudomonas aeruginosa, PAO1, read-out: MIC, Sensititre
Description: as §4

[27] = tested on: PAO1 mutant MIN8_1, nalD(R3C), pilM(Q62X); assay: MIC, Sensititre custom plate; assay type: cell-based; settings: Pseudomonas aeruginosa, PAO1, read-out: MIC, Sensititre
Description: as §4

[28] = tested on: PAO1 mutant MIN8_2, pilZ(nt18InsT); assay: MIC, Sensititre custom plate; assay type: cell-based; settings: Pseudomonas aeruginosa, PAO1, read-out: MIC, Sensititre
Description: as §4

[29] = tested on: PAO1 mutant MIN8_3, pilZ(nt18InsT); assay: MIC, Sensititre custom plate; assay type: cell-based; settings: Pseudomonas aeruginosa, PAO1, read-out: MIC, Sensititre
Description: as §4

[30] = tested on: PAO1 mutant MIN8_4, pilZ(nt18InsT); assay: MIC, Sensititre custom plate; assay type: cell-based; settings: Pseudomonas aeruginosa, PAO1, read-out: MIC, Sensititre
Description: as §4

[31] = tested on: PAO1 mutant MIN1_RW01_4, pmrB(F124L); assay: microbe, parasite or virus in culture; assay type: cell-based; settings: Pseudomonas aeruginosa, PAO1, read-out: MIC, Sensititre
Description: as §4

[32] = tested on: PAO1 mutant MIN4_RW01_2, pmrB(F124S); assay: microbe, parasite or virus in culture; assay type: cell-based; settings: Pseudomonas aeruginosa, PAO1, read-out: MIC, Sensititre
Description: as §4

Compound | MIC [1] [µg/mL] | MIC [2] [µg/mL] | MIC [3] [µg/mL] | MIC [4] [µg/mL] | MIC [5] [µg/mL] | MIC [6] [µg/mL] | MIC [7] [µg/mL] | MIC [8] [µg/mL] | MIC [9] [µg/mL] | MIC [10] [µg/mL] | MIC [11] [µg/mL] | MIC [12] [µg/mL] | MIC [13] [µg/mL] | MIC [14] [µg/mL] | MIC [15] [µg/mL] | MIC [16] [µg/mL] | MIC [17] [µg/mL] | MIC [18] [µg/mL] | MIC [19] [µg/mL] | MIC [20] [µg/mL] | also measured
CC(C)(O/N=C(\C(=O)N[C@@H]1C(=O)N2C(C(=O)[O-])=C(C[n+]3ccccc3)CS[C@H]12)c1csc(N)n1)C(=O)O [Ceftazidime, ceftazidime] | 8 | 4 | 4 | 8 | 2 | 2 | 2 | 4 | 4 | 2 | 1 to 2 (≈ 1.83 to 3.66 µM) | 4 (≈ 7.32 µM) | 4 (≈ 7.32 µM) | 2 (≈ 3.66 µM) | 4 (≈ 7.32 µM) | ≤ 1 | 4 (≈ 7.32 µM) | ≤ 1 | 2 (≈ 3.66 µM) | 2 (≈ 3.66 µM) | MIC [21]: 2 µg/mL (≈ 3.66 µM); MIC [22]: 2 µg/mL (≈ 3.66 µM); MIC [23]: 4 µg/mL (≈ 7.32 µM); MIC [24]: 4 µg/mL (≈ 7.32 µM); MIC [25]: ≤ 1 µg/mL; MIC [26]: ≤ 1 µg/mL; MIC [27]: 4 µg/mL (≈ 7.32 µM); MIC [28]: 4 µg/mL (≈ 7.32 µM); MIC [29]: 4 µg/mL (≈ 7.32 µM); MIC [30]: 4 µg/mL (≈ 7.32 µM); MIC [31]: 2 µg/mL (≈ 3.66 µM); MIC [32]: ≤ 1 µg/mL
C[C@@H](O)[C@H]1C(=O)N2C(C(=O)O)=C(SCCN=CN)C[C@H]12 [Imipenem, imipenem] | 2 | 2 | 2 | 16 | 2 | 8 | 2 | 0.5 | 2 | 2 | 1 to 2 (≈ 3.34 to 6.68 µM) | 2 to 4 (≈ 6.68 to 13.4 µM) | 2 (≈ 6.68 µM) | 1 (≈ 3.34 µM) | 2 (≈ 6.68 µM) | 2 (≈ 6.68 µM) | 1 (≈ 3.34 µM) | 2 (≈ 6.68 µM) | 4 (≈ 13.4 µM) | 2 (≈ 6.68 µM) | MIC [21]: 8 µg/mL (≈ 26.7 µM); MIC [22]: 2 µg/mL (≈ 6.68 µM); MIC [23]: 2 µg/mL (≈ 6.68 µM); MIC [24]: 2 to 4 µg/mL (≈ 6.68 to 13.4 µM); MIC [25]: 16 µg/mL (≈ 53.4 µM); MIC [26]: 4 µg/mL (≈ 13.4 µM); MIC [27]: 2 µg/mL (≈ 6.68 µM); MIC [28]: 2 µg/mL (≈ 6.68 µM); MIC [29]: 2 µg/mL (≈ 6.68 µM); MIC [30]: 2 µg/mL (≈ 6.68 µM); MIC [31]: 2 µg/mL (≈ 6.68 µM); MIC [32]: 2 µg/mL (≈ 6.68 µM)
